Columns and labels:
[1] = Lather stability (lather drainage time, method of Hart and DeGeorge); assay type: physicochemical; conditions: for enhancement of lather stability of the product by addition as one-third of the product: 3:1 blend; for change in lather stability (lather drainage time) on addition of water hardness: approximately 3,000 ppm water hardness (CaCO3), FIG. 2
Protocol: The lather stability of a surfactant solution, expressed as lather drainage time, can be determined by the method of Hart and DeGeorge, J. Soc. Cosmet. Chem., 31, 223-226 (1980). In this method, a 200 ml portion of the test solution is agitated in a blender for one minute. The lather produced is immediately poured into a Nalgene PF150 funnel, which has been modified for easy detection of endpoint by incorporation of a fine strand of Nicrome wire across the funnel, where the diameter is 9 cm. The funnel is supported by a 20-mesh sieve. The time elapsed between pouring of the blender contents into the funnel and reappearance of the wire through the subsiding foam, determined using a stopwatch, is reported as the lather drainage time in seconds.

human skin cels = experiment: In vitro skin irritation testing (MTT assay); assay type: cell-based; conditions: tissue immersed for 24 hours; about 16% solutions
Protocol: Samples of 1) the aforementioned commercial baby shampoo, 2) Na2LED3A, 3) a 3:1 ratio blend of baby shampoo and Na2LED3A, and 4) a 16% solution of sodium laureth 3 sulfate (a surfactant commonly used in ordinary shampoo) were subjected to in vitro skin irritation testing. A sample of the tissue is immersed for 24 hours in a solution of the substance to be evaluated and later assayed for viable mitochondria by an MTT assay. The MTT assay is a colorimetric method for determining cell viability based on the reduction of a tetrazolium salt (MTT) into a colored formazan dye by mitochondrial enzymes of the electron transport chain. The extent to which the number of viable mitochondria has been reduced, compared to a control, is taken as a measure of the toxicity of the test substance to human skin cels. The in vitro scoring classification used was as follows: […]

[2] = product Johnsons Baby 2 in 1 shampoo, hard water (200 ppm CaCO3)
[3] = product Johnsons Baby 2 in 1 shampoo, soft water
[4] = product Johnsons Baby Bath, hard water (200 ppm CaCO3)
[5] = product Johnsons Baby Bath, soft water
[6] = product Johnsons Baby Shampoo, hard water (200 ppm CaCO3)
[7] = product Johnsons Baby Shampoo, soft water
[8] = product Suave Baby Care, hard water (200 ppm CaCO3)
[9] = product Suave Baby Care, soft water
[10] = sodium chloride, 1% solution, pH 7, FIG. 1

| Molecule | enhancement of lather stability of the product by addition as one-third of the product [1, 2] | enhancement of lather stability of the product by addition as one-third of the product [1, 3] | enhancement of lather stability of the product by addition as one-third of the product [1, 4] | enhancement of lather stability of the product by addition as one-third of the product [1, 5] | enhancement of lather stability of the product by addition as one-third of the product ([1]; product Johnsons Baby Shampoo, even harder water (400 ppm CaCO3)) | enhancement of lather stability of the product by addition as one-third of the product [1, 6] | enhancement of lather stability of the product by addition as one-third of the product [1, 7] | enhancement of lather stability of the product by addition as one-third of the product [1, 8] | enhancement of lather stability of the product by addition as one-third of the product [1, 9] | lather effectiveness relative to the baby shampoo alone ([1]; pure substance, hard water, versus Johnsons Baby 2 in 1 shampoo, FIG. 11) | change in lather stability (lather drainage time) on addition of water hardness ([1]; 1% solution) | lather drainage time depressed by, upon addition of 4% electrolyte [1, 10] [s] | Classification (in vitro skin irritation) (human skin cels) | In vitro Score MTT-50 (human skin cels) | lather drainage time ([1]; in the presence of 200 ppm hardness, FIG. 10) | lather drainage time increased by, upon addition of 4% electrolyte [1, 10] |
| --- | --- | --- | --- | --- | --- | --- | --- | --- | --- | --- | --- | --- | --- | --- | --- | --- |
| CCCCCCCCCCCC(=O)N(CCN(CC(=O)[O-])CC(=O)[O-])CC(=O)O.[K+].[K+] [K2LED3A, potassium lauroyl-ED3A] | approximately 7 fold | more than 2 fold | approximately 12 fold | approximately 5 fold | more than 24 fold | more than 14 fold | approximately 8 fold | 5 fold | approximately 2 fold | – | – | – | – | – | – | – |
| CCCCCCCCCCCCCC(=O)N(CCN(CC(=O)[O-])CC(=O)[O-])CC(=O)O.[Na+].[Na+] [Na2MED3A, sodium myristoyl ED3A] | 9 fold | more than 9 fold | – | – | – | – | – | – | – | more than 100 times | – | – | – | – | – | – |
| CCCCCCCCCCCCOS(=O)(=O)[O-].[Na+] [sodium lauryl sulfate, reference compound] | – | – | – | – | – | – | – | – | – | – | five-fold reduction | 30 | – | – | – | – |
| sodium laureth 3 sulfate [Na Laureth(3) sulfate, reference compound] | – | – | – | – | – | – | – | – | – | – | – | – | Moderate (201-1,000) | 522 micro g/ml | – | – |
| sodium lauroyl ED3A [Na2LED3A] | 5 fold | approximately 6 fold | more than 12 fold | more than 4 fold | – | approximately 7 fold | approximately 7 fold | more than 5 fold | more than doubled | – | five-fold increase | – | Non-irritant (>10,000) | >10,000 micro g/ml | over 200 seconds | more than 70 seconds |

From patent publication US6503873B1, “Ultra mild detergent compositions” (Hampshire Chemical Corp, priority 1996, dated 2003)
